For series [1], the system named is Acinetobacter baumannii. Briefly: Potentiation of novobiocin induced antibacterial activity against Acinetobacter baumannii ATCC 17978 assessed as decrease in bacterial growth at 0.4 uM incubated for 18 hrs in presence of novobiocin by two fold serial dilution assay. Type of series: functional, organism-based.
Series [2] has as its system Klebsiella pneumoniae. Briefly: Antibacterial activity against Klebsiella pneumoniae ATCC 700603 assessed as inhibition of bacterial growth incubated for 18 hrs by two fold serial dilution assay. Type of series: functional.
In series [3] the test system is Escherichia coli. Briefly: Antibacterial activity against Escherichia coli ATCC 25922 assessed as inhibition of bacterial growth incubated for 18 hrs by two fold serial dilution assay. Type of series: functional.
Series [4] concerns Acinetobacter baumannii. Briefly: Potentiation of fusidic acid induced antibacterial activity against Acinetobacter baumannii ATCC 17978 assessed as decrease in bacterial growth at 0.4 uM incubated for 18 hrs in presence of fusidic acid by two fold serial dilution assay. Format: functional, organism-based.
The subject of series [5] is Escherichia coli. Briefly: Potentiation of erythromycin induced antibacterial activity against Escherichia coli ATCC 25922 assessed as decrease in bacterial growth at 0.4 uM incubated for 18 hrs in presence of erythromycin by two fold serial dilution assay. Type of series: functional, organism-based.
Series [6] deals with Klebsiella pneumoniae. Briefly: Potentiation of fusidic acid induced antibacterial activity against Klebsiella pneumoniae ATCC 700603 assessed as decrease in bacterial growth at 0.4 uM incubated for 18 hrs in presence of fusidic acid by two fold serial dilution assay. Type of series: functional, organism-based.
Series [7] concerns Acinetobacter baumannii. Briefly: Potentiation of erythromycin induced antibacterial activity against Acinetobacter baumannii ATCC 17978 assessed as decrease in bacterial growth at 0.4 uM incubated for 18 hrs in presence of erythromycin by two fold serial dilution assay. Type of series: functional, organism-based.
Series [8] has as its system Klebsiella pneumoniae. Briefly: Potentiation of erythromycin induced antibacterial activity against Klebsiella pneumoniae ATCC 700603 assessed as decrease in bacterial growth at 0.4 uM incubated for 18 hrs in presence of erythromycin by two fold serial dilution assay. Format: functional, organism-based.
Series [9] concerns Klebsiella pneumoniae. Briefly: Potentiation of novobiocin induced antibacterial activity against Klebsiella pneumoniae ATCC 700603 assessed as decrease in bacterial growth at 0.4 uM incubated for 18 hrs in presence of novobiocin by two fold serial dilution assay. Type of series: functional, organism-based.
The nature of series [10]: Hemolytic activity in human blood assessed as hemolysis incubated for 6 hrs by microplate reader analysis. Type of series: toxicity, tissue-based.
For series [11], the system named is Acinetobacter baumannii. Briefly: Antibacterial activity against Acinetobacter baumannii ATCC 17978 assessed as inhibition of bacterial growth incubated for 18 hrs by two fold serial dilution assay. Format: functional.
Series [12] deals with Escherichia coli. Briefly: Potentiation of novobiocin induced antibacterial activity against Escherichia coli ATCC 25922 assessed as decrease in bacterial growth at 0.4 uM incubated for 18 hrs in presence of novobiocin by two fold serial dilution assay. Format: functional, organism-based.
A short description of series [13]: Hydrophobicity of the compound assessed as retention time by reversed-phase HPLC analysis. Type of series: physicochemical.
Series [14] relates to Escherichia coli. Briefly: Potentiation of fusidic acid induced antibacterial activity against Escherichia coli ATCC 25922 assessed as decrease in bacterial growth at 0.4 uM incubated for 18 hrs in presence of fusidic acid by two fold serial dilution assay. Format: functional, organism-based.

≈ marks a conversion by molar mass, not a printed value. Calls of active or inactive are those of the source. No cut-off for these calls is given here. A value given as a limit tells only on which side of the number the result lay.

In the case of `CC(=O)N[C@@H](CCCCN)C(=O)N[C@@H](CCCCN)C(=O)N[C@@H](CC(C)C)C(=O)N[C@@H](CC(C)C)C(=O)N[C@@H](CCCCN)C(=O)N[C@@H](CC(C)C)C(=O)N[C@@H](CC(C)C)C(=O)N[C@@H](CCCCN)C(=O)N[C@@H](CCCCN)C(=O)N1CCC[C@H]1C(=O)N[C@@H](CC(C)C)C(=O)N[C@@H](CCCCN)C(=O)N[C@@H](CC(C)C)C(=O)N[C@@H](CC(C)C)C(=O)N[C@@H](CCCCN)C(N)=O`, the outcome in the series with Acinetobacter baumannii [1], in the series on Acinetobacter baumannii [4], in the series on Escherichia coli [5], in the series on Klebsiella pneumoniae [6], in the series on Acinetobacter baumannii [7] and with Klebsiella pneumoniae [8] was Active. Moreover, the result with Klebsiella pneumoniae [9], in the series with Escherichia coli [12] and in the series with Escherichia coli [14] was Active. The MIC – broadly, the least concentration at which growth counts as inhibited – is above 80 µM in the series with Klebsiella pneumoniae [2], above 80 µM with Escherichia coli [3] and 10 µM (≈ 18.5 µg/mL) in the series on Acinetobacter baumannii [11]. Also, in series [10], the MHC10 is above 160 µM. Besides, the Retention_time in series [13] is 18.2 min.
Ac-AKLLKLLKKPLKLLK-NH2: the result in the series with Acinetobacter baumannii [1], in the series on Acinetobacter baumannii [4], in the series with Escherichia coli [5], in the series on Klebsiella pneumoniae [6], with Acinetobacter baumannii [7] and in the series with Klebsiella pneumoniae [8] was Active. For the same compound, the outcome in the series on Klebsiella pneumoniae [9], in the series with Escherichia coli [12] and in the series with Escherichia coli [14] was Active. Also, the MIC was above 80 µM with Klebsiella pneumoniae [2], above 80 µM in the series on Escherichia coli [3] and 40 µM in the series on Acinetobacter baumannii [11]. Further, in series [10], the MHC10 is above 160 µM. Besides, the Retention_time in [13] stood at 19.2 min.
Consider Ac-KALLKLLKKPLKLLK-NH2, for which the result with Acinetobacter baumannii [1], with Acinetobacter baumannii [4], with Escherichia coli [5], in the series on Klebsiella pneumoniae [6], in the series on Acinetobacter baumannii [7] and in the series on Klebsiella pneumoniae [8] was Active. The outcome in the series on Klebsiella pneumoniae [9], in the series with Escherichia coli [12] and with Escherichia coli [14] was Active. Also, the minimal inhibitory concentration (MIC) is above 80 µM in the series on Klebsiella pneumoniae [2], above 80 µM in the series with Escherichia coli [3] and 20 µM in the series with Acinetobacter baumannii [11]. In series [10], the MHC10 is above 160 µM. Moreover, the Retention_time in [13] came out at 19.4 min.
With Ac-KKALKLLKKPLKLLK-NH2, the result in the series with Acinetobacter baumannii [1], in the series on Acinetobacter baumannii [4], with Escherichia coli [5], in the series on Klebsiella pneumoniae [6], in the series on Acinetobacter baumannii [7] and with Klebsiella pneumoniae [8] was Active. In addition, the result in the series on Klebsiella pneumoniae [9], with Escherichia coli [12] and with Escherichia coli [14] was Active. Also, the MIC in the series with Klebsiella pneumoniae [2], with Escherichia coli [3] and in the series with Acinetobacter baumannii [11] was above 80 µM throughout. For the same compound, in [10], the MHC10 was above 160 µM. Further, the Retention_time in series [13] turned out to be 16.7 min.
On to Ac-KKLAKLLKKPLKLLK-NH2, for which the result with Acinetobacter baumannii [1], with Acinetobacter baumannii [4], in the series on Escherichia coli [5], with Klebsiella pneumoniae [6], in the series with Acinetobacter baumannii [7] and in the series on Klebsiella pneumoniae [8] was Active. Besides, the result with Klebsiella pneumoniae [9], in the series on Escherichia coli [12] and with Escherichia coli [14] was Active. The MIC was above 80 µM with Klebsiella pneumoniae [2], above 80 µM in the series with Escherichia coli [3] and 80 µM in the series on Acinetobacter baumannii [11]. Also, the MHC10 in series [10] was above 160 µM. Moreover, the Retention_time in series [13] is given as 17.1 min.

The values are drawn from ChEMBL document CHEMBL5385907, “Proline-Hinged α-Helical Peptides Sensitize Gram-Positive Antibiotics, Expanding Their Physicochemical Properties to Be Used as Gram-Negative Antibiotics” (J Med Chem, 2024).
